{"source": "patent US6001810A", "about": "“Methods for treating retroviral infection” (Eli Lilly and Company, priority 1990, dated 1999)", "key": {"[1]": {"system": "complex of Friend's Spleen-Forcus Virus (Fr. SFFV) and Friend's Murine Leukemia Virus (F. MLV)", "assay": "In vivo inhibition of Friend Virus Complex in DBA/2 mice", "parameters": "Spleen / Inhibition % (spleen): dose or concentration left out as unconfirmed", "conditions": "individual infected DBA/2 mice", "description": "Formulations of peptides P-9 and P-7 were prepared for injection into DBA/2 mice. The formulations were prepared by dissolving the purified peptides in Emulphor™ EL620 which was purchased from the GAF Chemical Corporation, 1361 Alps Row, Wayne, N.J., 07470. The drugs were injected intraperitoneally one hour before the mice were infected with a complex of Friend's Spleen-Forcus Virus (Fr. SFFV) and Friend's Murine Leukemia Virus (F. MLV). These viruses ordinarily cause polycythermia (elevated levels of red blood cells) and splenomegaly (enlargement of spleen) within two to three week post-infection. The mice were injected twice daily with the inhibitor formulation for twenty days after the infection.\n*Drugs were dissolved in Emulphor ™, injected IP one hour before\ninfection, then twice daily for 20 days.\n^a Titers of Fr.MLV in the spleens (supernatents of 10% homogenates)\nwere determined by XC plaque assay."}, "[2]": {"system": "HTLV-IIIB strain of HIV-1", "assay": "Inhibition of HIV-1 cytopathic effect in CEM cells (XTT)", "format": "cell-based", "conditions": "for IC25 (concentration that reduced CPE by 25%): Table V first column", "description": "(§1) Quantitative evaluation of the viral inhibition were performed on the T-cell lymphoblastoid cell lines MT-2 (Harada et al., 1985, Science 229:563-566) and CEM (Nara and Fischinger, 1988, Nature 332:469-470). The cells were infected with the HTLV-IIIB strain of HIV-1 from the supernatant fluid of infected human T-lymphocyte cell line H9 (Popovic, M. et al., 1984, Science 224:497-500). Each of these three cell lines are publicly available from the National Institutes of Health (NIH) AIDS Research and Reference Reagent Program. The H9/HTLC-IIIB cell line is available under catalogue number 231, while CEM cell line is available under catalogue number 117 and the MT-2 cell line is available under the catalogue number 237. MT-2 and CEM cells were grown in RPMI 1640 medium supplemented with 10% (v/v) fetal calf serum, 100 U/ml penicillin, 100 μg/ml streptomycin and 25 mM HEPEs buffer. H9 cells were grown in the same medium except 20% fetal calf serum was used. The peptides were diluted in the medium used for MT-2 and CEM cells. Cell cultures were maintained in disposable tissue culture labware at 37° C. in a humidified atmosphere of 5% CO2 in air.\n(§2) The inhibitors were dissolved in DMSO at 40 mg/ml or sterile water at 2 mg/ml, then dilutions were made in medium. The dilutions were added to micro-titer plates in 100 μl/well aliquots so that the high drug concentration for each screen was 100 μg/ml after the addition of cells to the well.\n(§3) Susceptible MT-2 and CEM cells were grown and the cell population determined by a trypan blue viable cell count. The desired total number of cells were placed in a sterile, disposable 50 ml conical centrifuge tube and virus was added to give an MOI (Multiplicity of Infection) of 0.03 TCID50 /cell (Tissue Culture Infectious Dose) on MT-2 cells and approximately 0.12 TCID50 /cell on CEM cells. Fresh medium was added to adjust the cell density to 1×10^5 cells/ml, then the virus-cell suspension was incubated at 37° C. for 1 to 2 hours until plating. Uninfected controls cell were prepared in the same manner but without the addition of virus. Infected and uninfected cells were added to plates in 100 μl/well aliquots to give a starting cell number of 1×10^4 cells/well. The plates were incubated for seven days in a humidified atmosphere of 5% CO2 in air.\nReagents for colorimetric evaluation of cell viability were prepared by mixing the tetrazolium reagent, XTT, and phenazine methosulfate (PMS) to final concentrations of 200 μg/ml and 0.02 mM, respectively. […] The plates were read with the sealers in place in a Vmax Plate Reader® at 450 nm and 650 nm. The cytopathic effect (CPE) and percentage of cell viability were then calculated. […]"}, "CEM cells": {"system": "CEM cells", "format": "cell-based", "description": "as §1, §2, §3\nReagents for colorimetric evaluation of cell viability were prepared by mixing the tetrazolium reagent, XTT, and phenazine methosulfate (PMS) to final concentrations of 200 μg/ml and 0.02 mM, respectively. Fifty microliters of the XTT-PMS solution was added to each well of the microtiter plates, then the plates were incubated in the CO2 incubator for another four hours. The lids were removed from the plates and replaced with adhesive plate sealers. The plates were read with the sealers in place in a Vmax Plate Reader® at 450 nm and 650 nm. The cytopathic effect (CPE) and percentage of cell viability were then calculated.\nThe activity and cytotoxicity of several other peptides were also assayed in CEM cells using the same procedure as described above. These assays also included toxicity and activity levels of both 25% and 50%."}, "Mo-MuLV": {"system": "Mo-MuLV", "assay": "Moloney Murine Leukemia Virus Assay, CPE inhibition in SC-1/XC cells", "format": "cell-based", "parameters": "key: 4+(>90%); 3+(>60%); 2+(>40%); 1+(>20%); -(Negative)", "description": "(§4) About 3 to 5×10^3 SC-1 cells (available from the American Type Culture Collection, Rockville, Md. under the accession number ATCC CRL-1404) per well of a 96-well microtiter plate were seeded in minimal essential medium supplemented with 5% fetal bovine serum, penicillin (150 U/ml), Streptomycin (150 μg/ml) and polybrene (2 μg/ml), then infected with Mo-MuLV (Multiplicity of Infection=10 PFU/cell) the next day. The virus was allowed to adsorb to the cells for 1 hour, then medium containing serial dilutions of P-7, P-9 or medium alone was added to the cells. Pepstatin A ([…]-Val-Val-Statine-Ala-Statine) and AZT (3'-Azido-3'-deoxythymidine) were also added as controls. After incubation for 5 days (when cells were confluent) the SC-1 cells were UV irradiated for 10 seconds and 5 to 8×10^4 XC cells (ATCC CCL-165) per well were added. Generally, about two additional days of incubation were required to obtain full virus-induced cytopathic effect."}, "MLV": {"system": "MLV", "assay": "MLV XC Plaque Reduction Assay - Virus Yield", "format": "cell-based, Murine Leukemia Virus", "description": "as §4\nThe assay described above was also preferred to determine the virus yield. In this experiment, the supernatents were removed from the SC-1 cells four days after infection and tested for MLV titers, using the XC-plaque assay as previously described."}, "MT-2 cells": {"system": "MT-2 cells", "format": "cell-based", "description": "as §1, §2, §3\n(§5) Reagents for colorimetric evaluation of cell viability were prepared by mixing the tetrazolium reagent, XTT, and phenazine methosulfate (PMS) to final concentrations of 200 μg/ml and 0.02 mM, respectively. […] The plates were read with the sealers in place in a Vmax Plate Reader® at 450 nm and 650 nm. The cytopathic effect (CPE) and percentage of cell viability were then calculated."}, "[3]": {"system": "HTLV-IIIB strain of HIV-1", "assay": "Inhibition of HIV-1 cytopathic effect in MT-2 cells (XTT)", "format": "cell-based", "conditions": "7 days", "description": "as §1, with “H9 cells were grown in the same medium except 20% fetal calf serum was used. The peptides were diluted in the medium used for MT-2 and CEM cells. Cell cultures were maintained in disposable tissue culture labware at 37° C. in a humidified atmosphere of 5% CO2 in air.” left out\nSusceptible MT-2 and CEM cells were grown and the cell population determined by a trypan blue viable cell count. […]\nas §5"}}, "note": "“And” between values parts separate entries of the source, which are not always exact repeats. Equal values may be shown once."}
{"smiles": "Cc1cn([C@H]2C[C@H](N=[N+]=[N-])[C@@H](CO)O2)c(=O)[nH]c1=O", "note": "[AZT, 3'-Azido-3'-deoxythymidine]", "values": [{"measurement": "Inhibiton % (virus titer)", "setting": "[1]; 100 pg IP twice daily for 20 days", "value": "> 99% and 95%"}, {"measurement": "Virus Titer (Fr.MLV in the spleens, XC plaque assay)", "setting": "[1]; 100 pg IP twice daily for 20 days, supernatents of 10% homogenates", "value": "500 PFU/ml and 20,000 PFU/ml"}, {"measurement": "Spleen", "setting": "[1]; IP one hour before infection, then twice daily for 20 days", "value": "0.17 gm and 0.21 gm"}, {"measurement": "Inhibition % (spleen)", "setting": "[1]; IP twice daily for 20 days", "value": "85% and 81%"}, {"measurement": "IC50", "setting": "[2]; Human immunodeficiency virus 1, IIIB, CCRF-CEM, Table V, read-out: IC50 (concentration that reduced CPE by 50%)", "value": "< 0.0032", "unit": "µg/mL"}, {"measurement": "IC25 (concentration that reduced CPE by 25%)", "setting": "[2]", "value": "< 0.0032", "unit": "µg/mL"}, {"measurement": "Maximum inhibition reached (CPE)", "setting": "[2]; inhibition decreased as drug concentration increased", "value": 60, "unit": "%"}, {"measurement": "IC25 (Table V)", "setting": "CEM cells", "value": "> 1.0", "unit": "µg/mL"}, {"measurement": "TC50 (concentration that reduced cell viability by 50%)", "setting": "CEM cells", "value": "> 1.0", "unit": "µg/mL"}, {"measurement": "CPE inhibition score", "setting": "Mo-MuLV; .0004 μg/ml", "value": "-"}, {"measurement": "CPE inhibition score", "setting": "Mo-MuLV; .0008 μg/ml", "value": "-"}, {"measurement": "CPE inhibition score", "setting": "Mo-MuLV; .003 μg/ml", "value": "2+ (2+(>40%))"}, {"measurement": "CPE inhibition score", "setting": "Mo-MuLV; .006 μg/ml", "value": "3+ (3+(>60%))"}, {"measurement": "CPE inhibition score", "setting": "Mo-MuLV; .012 μg/ml", "value": "4+ (4+(>90%))"}, {"measurement": "CPE inhibition score", "setting": "Mo-MuLV; .015 μg/ml", "value": "1+ (1+(>20%))"}, {"measurement": "CPE inhibition score", "setting": "Mo-MuLV; .025 μg/ml", "value": "4+ (4+(>90%))"}, {"measurement": "CPE inhibition score", "setting": "Mo-MuLV; .05 μg/ml", "value": "4+ (4+(>90%))"}, {"measurement": "CPE inhibition score", "setting": "Mo-MuLV; .1 μg/ml", "value": "4+ (4+(>90%))"}, {"measurement": "CPE inhibition score", "setting": "Mo-MuLV; .2 μg/ml", "value": "4+ (4+(>90%))"}, {"measurement": "Yield", "setting": "MLV; 3.125 ng/ml", "value": "2.9 × 10^4 PFU/ML"}, {"measurement": "Yield", "setting": "MLV; 6.25 ng/ml", "value": 80, "unit": "PFU/ML"}, {"measurement": "Yield", "setting": "MLV; 12.5 ng/ml", "value": "< 10", "unit": "PFU/ML"}, {"measurement": "% Inhibition (virus yield)", "setting": "MLV; 25 ag/ml", "value": "> 99", "unit": "%"}, {"measurement": "Yield", "setting": "MLV; 25 ag/ml", "value": "< 10", "unit": "PFU/ML"}, {"measurement": "inhibition at 0.003125 µg/mL", "setting": "MLV; Murine leukemia virus, 3.125 ng/ml", "value": 98, "unit": "%"}, {"measurement": "inhibition at 0.00625 µg/mL", "setting": "MLV; Murine leukemia virus, 6.25 ng/ml", "value": "> 99", "unit": "%"}, {"measurement": "inhibition at 0.0125 µg/mL", "setting": "MLV; Murine leukemia virus, 12.5 ng/ml", "value": "> 99", "unit": "%"}]}
{"smiles": "Nc1ccn([C@H]2CC[C@@H](CO)O2)c(=O)n1", "note": "[DDC, 2', 3Dideoxycytidine]", "values": [{"measurement": "IC25 (concentration that reduced CPE by 25%)", "setting": "[2]", "value": 0.0032, "unit": "µg/mL"}, {"measurement": "MTC50 (minimum cytotoxic drug concentration that reduces cell viability to 50%)", "setting": "MT-2 cells", "value": "> 10", "unit": "µg/mL"}, {"measurement": "IC25 (Table V)", "setting": "CEM cells", "value": 0.04, "unit": "µg/mL"}, {"measurement": "TC50 (concentration that reduced cell viability by 50%)", "setting": "CEM cells", "value": 0.8, "unit": "µg/mL"}, {"measurement": "ID50 (minimum drug concentration that inhibited CPE by 50%)", "setting": "[3]", "value": "0.11 µg/mL and 0.10 µg/mL"}]}
